According to PubChem BioAssay AID248 (DTP/NCI, 2004):
Where “and” joins values, the source holds several entries; their conditions need not be identical. Identical values can stand only once. Toxic doses and inconclusive results are not listed. No stated cut-off is given here; in the data, active means T/C of 150% or more; inactive means T/C below 125%.

Test system: L1210 leukemia ip in BDF1 mice, survival T/C
Experiment: NCI In Vivo Anticancer Drug Screen. Data for tumor model L1210 Leukemia (intraperitoneal) in B6D2F1 (BDF1) mice
Conditions: endpoint: mean survival time, higher = longer survival
Procedure, shortened: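 Tumor cells were implanted, animals were treated, and survival was followed. The result divides the treated measurement by the vehicle-control measurement.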

[1] = dose: 100.0 mg/kg/injection, schedule: Q04DX003 (ip), vehicle: saline with Tween-80
[2] = dose: 200.0 mg/kg/injection, schedule: Q04DX003 (ip), vehicle: saline with Tween-80
[3] = dose: 400.0 mg/kg/injection, schedule: Q04DX003 (ip), vehicle: saline with Tween-80

Measured: T/C

CCOC(=O)c1cn(C2OC(COC(=O)c3ccccc3)C(OC(=O)c3ccccc3)C2OC(=O)c2ccccc2)c(=O)nc1Nc1ccccc1Cl (stereo not given)
inactive: dose: 25.0 mg/kg/injection, schedule: Q01DX005 (ip), vehicle: saline 104 % of control | dose: 50.0 mg/kg/injection, schedule: Q01DX005 (ip), vehicle: saline 105 % of control | dose: 75.0 mg/kg/injection, schedule: Q01DX005 (ip), vehicle: saline 105 % of control | dose: 100.0 mg/kg/injection, schedule: Q01DX005 (ip), vehicle: saline 123 % of control | dose: 200.0 mg/kg/injection, schedule: Q01DX005 (ip), vehicle: saline 92 % of control

NC(=O)N/N=C/CSCc1ccccc1
inactive: [1] 102 % of control | [2] 97 % of control | [3] 92 % of control

Cc1cc(NC(=O)NCc2ccc([N+](=O)[O-])cc2)ccc1S(=O)(=O)F
inactive: [1] 100 % of control | [2] 95 % of control | [3] 92 % of control

O=C(O)c1ccc(CCc2ccc(Cl)c(S(=O)(=O)F)c2)cc1
inactive: dose: 100.0 mg/kg/injection, schedule: Q01DX001 (ip), vehicle: saline with Tween-80 94 % of control | dose: 200.0 mg/kg/injection, schedule: Q01DX001 (ip), vehicle: saline with Tween-80 92 % of control | dose: 400.0 mg/kg/injection, schedule: Q01DX001 (ip), vehicle: saline with Tween-80 91 % of control

CCCCOC(=O)c1ccc(NC(=O)Nc2ccccc2)cc1
inactive: dose: 25.0 mg/kg/injection, schedule: Q04DX003 (ip), vehicle: saline with Tween-80 101 % of control | dose: 50.0 mg/kg/injection, schedule: Q04DX003 (ip), vehicle: saline with Tween-80 93 % of control | [1] 93 % of control and 97 % of control

S=P(c1cccc2ccccc12)(c1cccc2ccccc12)c1cccc2ccccc12
inactive: dose: 100.0 mg/kg/injection, schedule: Q01DX001 (ip), vehicle: saline 97 % of control | dose: 200.0 mg/kg/injection, schedule: Q01DX001 (ip), vehicle: saline 95 % of control | dose: 400.0 mg/kg/injection, schedule: Q01DX001 (ip), vehicle: saline 95 % of control

CCNC(=O)Nc1ccc(C)cc1
inactive: dose: 100.0 mg/kg/injection, schedule: Q01DX001 (ip), vehicle: carboxymethylcellulose (CMC) 105 % of control | dose: 200.0 mg/kg/injection, schedule: Q01DX001 (ip), vehicle: carboxymethylcellulose (CMC) 97 % of control | dose: 400.0 mg/kg/injection, schedule: Q01DX001 (ip), vehicle: carboxymethylcellulose (CMC) 103 % of control

CC1CC(C)CC(NC(=O)NCCCl)C1 (stereo not given)
inactive: dose: 20.0 mg/kg/injection, schedule: Q01DX009 (ip), vehicle: Klucel (hydroxypropylcellulose) (HPC) 106 % of control | dose: 40.0 mg/kg/injection, schedule: Q01DX009 (ip), vehicle: Klucel (hydroxypropylcellulose) (HPC) 95 % of control | dose: 80.0 mg/kg/injection, schedule: Q01DX009 (ip), vehicle: Klucel (hydroxypropylcellulose) (HPC) 93 % of control | dose: 100.0 mg/kg/injection, schedule: Q04DX003 (ip), vehicle: Klucel (hydroxypropylcellulose) (HPC) 103 % of control | dose: 200.0 mg/kg/injection, schedule: Q01DX009 (ip), vehicle: Klucel (hydroxypropylcellulose) (HPC) 87 % of control | dose: 200.0 mg/kg/injection, schedule: Q04DX003 (ip), vehicle: Klucel (hydroxypropylcellulose) (HPC) 94 % of control | dose: 400.0 mg/kg/injection, schedule: Q04DX003 (ip), vehicle: Klucel (hydroxypropylcellulose) (HPC) 92 % of control
